According to article PMC6695355, “Alanine Scanning Studies of the Antimicrobial Peptide Aurein 1.2” (Probiotics and Antimicrobial Proteins, 2018):
Values after ≈ are worked out from the molar mass of the structure shown. Where a SMILES comes first, the peptide text is derived from it.

Columns and labels:
in vitro = in vitro ADME; details: bovine, serum
Procedure, shortened: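 Peptides incubated in 25% (v/v) fetal bovine serum in PBS at 37 °C, quenched with ice-cold acetonitrile at t0 and 6 h. Intact peptide quantified by RP-HPLC-MS in selected ion recording mode; % remaining = peak area at 6 h / peak area at t0.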

C. albicans ATCC 10231 = type: cell-based, Candida albicans; details: ATCC 10231, 24 h
Procedure, shortened: (§1)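 Broth microdilution per CLSI, 1–512 μg/mL; bacteria 0.5 × 10^5 CFU/mL in MHB, 37 °C 18 h; C. albicans 2 × 10^3 CFU/mL in RPMI-1640, 24 h; MIC = lowest concentration visibly inhibiting growth. MBEC: 24-h biofilms, PBS-rinsed, compound 24 h at 37 °C, resazurin read after 1 h. MBIC: compound with inoculum 24 h, then resazurin 1 h; cut-off ≤10% reduction versus controls.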

[1] = tested on: C. albicans ATCC 10231 biofilm; type: cell-based, Candida albicans; details: ATCC 10231, 24 h
Procedure, shortened: as §1

[2] = tested on: C. albicans ATCC 10231 biofilm formation; type: cell-based, Candida albicans; details: ATCC 10231, 24 h
Procedure, shortened: as §1

E. faecalis PCM 2673 = type: cell-based, Enterococcus faecalis; details: PCM 2673, 18 h
Procedure, shortened: as §1

[3] = tested on: E. faecalis PCM 2673 biofilm; type: cell-based, Enterococcus faecalis; details: 24 h
Procedure, shortened: as §1

[4] = tested on: E. faecalis PCM 2673 biofilm formation; type: cell-based, Enterococcus faecalis; details: 24 h
Procedure, shortened: as §1

[5] = type: physicochemical; details: pH 7.4
[6] = tested on: S. aureus ATCC 25923 biofilm formation; type: cell-based, Staphylococcus aureus; details: ATCC 25923, 24 h
Procedure, shortened: as §1

S. aureus ATCC 25923 = type: cell-based, Staphylococcus aureus; details: ATCC 25923, 18 h
Procedure, shortened: as §1

[7] = tested on: S. aureus ATCC 25923 biofilm; type: cell-based, Staphylococcus aureus; details: ATCC 25923, 24 h
Procedure, shortened: as §1

[8] = tested on: human red blood cells (RBCs); test: Hemolysis assay; type: cell-based; details: red cells of human, 1 h
Procedure, shortened: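 Fresh EDTA-anticoagulated human erythrocytes were PBS-washed and used at 4% (v/v) with peptide at 1–256 μg/mL in PBS for 1 h at 37 °C. Hemoglobin release in the supernatant was read at 540 nm. PBS set 0% and 1% Triton X-100 set 100% hemolysis; run in triplicate.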

[9] = tested on: P. aeruginosa ATCC 9027 biofilm; type: cell-based, Pseudomonas aeruginosa; details: ATCC 9027, 24 h
Procedure, shortened: as §1

[10] = tested on: P. aeruginosa ATCC 9027 biofilm formation; type: cell-based, Pseudomonas aeruginosa; details: ATCC 9027, 24 h
Procedure, shortened: as §1

P. aeruginosa ATCC 9027 = type: cell-based, Pseudomonas aeruginosa; details: ATCC 9027, 18 h
Procedure, shortened: as §1

[11] = tested on: E. coli ATCC 25922 biofilm formation; type: cell-based, Escherichia coli; details: ATCC 25922, 24 h
Procedure, shortened: as §1

[12] = tested on: E. coli ATCC 25922 biofilm; type: cell-based, Escherichia coli; details: ATCC 25922, 24 h
Procedure, shortened: as §1

E. coli ATCC 25922 = type: cell-based, Escherichia coli; details: ATCC 25922, 18 h
Procedure, shortened: as §1

What does the source list for CC[C@H](C)[C@H](NC(=O)[C@H](C)NC(=O)[C@H](CCCCN)NC(=O)[C@@H](NC(=O)[C@@H](NC(=O)[C@H](CC(=O)O)NC(=O)[C@H](Cc1ccccc1)NC(=O)[C@H](CC(C)C)NC(=O)CN)[C@@H](C)CC)[C@@H](C)CC)C(=O)N[C@@H](C)C(=O)N[C@@H](CCC(=O)O)C(=O)N[C@@H](CO)C(=O)N[C@@H](Cc1ccccc1)C(N)=O [Peptide K8A] (H-GLFDIIKAIAESF-NH2)?
remaining at 6 h, 0.125 mg/mL (in vitro): 36%; MIC, C. albicans ATCC 10231 (C. albicans ATCC 10231): 64 µg/mL (≈ 45 µM); MBEC, C. albicans ATCC 10231 [1]: > 512 µg/mL; MBIC, C. albicans ATCC 10231 [2]: 4 µg/mL; MIC, E. faecalis PCM 2673 (E. faecalis PCM 2673): 64 µg/mL (≈ 45 µM); MBEC, E. faecalis PCM 2673 [3]: > 512 µg/mL; MBIC, E. faecalis PCM 2673 [4]: 128 µg/mL; Solubility in surfactant-free phosphate buffer [5]: poor solubility; MBIC, S. aureus ATCC 25923 [6]: > 512 µg/mL; MIC, S. aureus ATCC 25923 (S. aureus ATCC 25923): > 512 µg/mL; MBEC, S. aureus ATCC 25923 [7]: > 512 µg/mL; Percentage of hemolysis at 1 μg/mL [8]; 1: 0.1%; Percentage of hemolysis at 2 μg/mL [8]; 2: 0.0%; Percentage of hemolysis at 4 μg/mL [8]; 4: 0.0%; Percentage of hemolysis at 8 μg/mL [8]; 8: 0.0%; Percentage of hemolysis at 16 μg/mL [8]; 16: 0.0%; Percentage of hemolysis at 32 μg/mL [8]; 32: 5.5%; Percentage of hemolysis at 64 μg/mL [8]; 64: 16.1%; Percentage of hemolysis at 128 μg/mL [8]; 128: 49.3%; Percentage of hemolysis at 256 μg/mL [8]; 256: 89.6%; MBEC, P. aeruginosa ATCC 9027 [9]: > 512 µg/mL; MBIC, P. aeruginosa ATCC 9027 [10]: > 512 µg/mL; MIC, P. aeruginosa ATCC 9027 (P. aeruginosa ATCC 9027): > 512 µg/mL; MBIC, E. coli ATCC 25922 [11]: 32 µg/mL; MBEC, E. coli ATCC 25922 [12]: > 512 µg/mL; MIC, E. coli ATCC 25922 (E. coli ATCC 25922): 128 µg/mL (≈ 90 µM)
